Consider 13 compounds from PubChem BioAssay AID1259407 (Chemical Carcinogenesis Research Information System (CCRIS), 2018).

Molecules are shown by their SMILES. Active and inactive are the calls of the source. No rule for the calls is given here.

For this series, the system named is CCRIS mutagenicity, Ames/micronucleus/aberration tests. Briefly: CCRIS mutagenicity studies.
Where [1] appears, read: Test System: AMES SALMONELLA TYPHIMURIUM, Strain/Indicator: TA98, Metabolic Activation: NONE, Method: STANDARD PLATE.
Setting [2] is: Test System: AMES SALMONELLA TYPHIMURIUM, Strain/Indicator: TA98, Metabolic Activation: RAT, LIVER, S-9, AROCLOR 1254, Method: STANDARD PLATE.
Setting [3] is: Test System: AMES SALMONELLA TYPHIMURIUM, Strain/Indicator: TA100, Metabolic Activation: NONE, Method: STANDARD PLATE.
The mark [4] stands for this setting: Test System: AMES SALMONELLA TYPHIMURIUM, Strain/Indicator: TA100, Metabolic Activation: RAT, LIVER, S-9, AROCLOR 1254, Method: STANDARD PLATE.
Setting [5] is: Test System: AMES SALMONELLA TYPHIMURIUM, Strain/Indicator: TA98, Metabolic Activation: NONE, Method: PREINCUBATION
The mark [6] stands for this setting: Test System: AMES SALMONELLA TYPHIMURIUM, Strain/Indicator: TA98, Metabolic Activation: RAT, LIVER, S-9, AROCLOR, Method: STANDARD PLATE.
[7] abbreviates: Test System: AMES SALMONELLA TYPHIMURIUM, Strain/Indicator: TA100, Metabolic Activation: NONE, Method: PREINCUBATION
Setting [8] is: Test System: AMES SALMONELLA TYPHIMURIUM, Strain/Indicator: TA100, Metabolic Activation: RAT, LIVER, S-9, AROCLOR, Method: STANDARD PLATE.
Setting [9] is: Test System: AMES SALMONELLA TYPHIMURIUM, Strain/Indicator: TA1535, Metabolic Activation: NONE, Method: STANDARD PLATE.
The mark [10] stands for this setting: Test System: AMES SALMONELLA TYPHIMURIUM, Strain/Indicator: TA1537, Metabolic Activation: NONE, Method: STANDARD PLATE.

For the compound `O=C(/C=C/c1ccc(-c2ccccc2)cc1)c1ccccc1`, the mutagenic call reads like this: under setting [1], “inactive; negative”; under setting [2], “inactive; negative”; under setting [3], “inactive; negative”; under setting [4], “inactive; negative”.

With `Cc1c2ccccc2c(COS(=O)(=O)O)c2ccc3ccccc3c12`, the mutagenic call under setting [5] was “active; positive”.

In the case of `Cc1ccccc1C`, the mutagenic call runs as follows: (Test System: AMES SALMONELLA TYPHIMURIUM, Strain/Indicator: TA98, Metabolic Activation: HAMSTER, LIVER, S-9, AROCLOR 1254, Method: PREINCUBATION) “inactive; negative”; under setting [5], “inactive; negative”; under setting [1], “inactive; negative”; (Test System: AMES SALMONELLA TYPHIMURIUM, Strain/Indicator: TA98, Metabolic Activation: RAT, LIVER, S-9, AROCLOR 1254, Method: PREINCUBATION) “inactive; negative”; under setting [6], “inactive; negative”; (Test System: AMES SALMONELLA TYPHIMURIUM, Strain/Indicator: TA100, Metabolic Activation: HAMSTER, LIVER, S-9, AROCLOR 1254, Method: PREINCUBATION) “inactive; negative”. The mutagenic call was “inactive; negative” under setting [7]; “inactive; negative” under setting [3]; “inactive; negative” (Test System: AMES SALMONELLA TYPHIMURIUM, Strain/Indicator: TA100, Metabolic Activation: RAT, LIVER, S-9, AROCLOR 1254, Method: PREINCUBATION); “inactive; negative” under setting [8]; “inactive; negative” (Test System: AMES SALMONELLA TYPHIMURIUM, Strain/Indicator: TA1535, Metabolic Activation: HAMSTER, LIVER, S-9, AROCLOR 1254, Method: PREINCUBATION); “inactive; negative” (Test System: AMES SALMONELLA TYPHIMURIUM, Strain/Indicator: TA1535, Metabolic Activation: NONE, Method: PREINCUBATION). The mutagenic call (Test System: AMES SALMONELLA TYPHIMURIUM, Strain/Indicator: TA1535, Metabolic Activation: RAT, LIVER, S-9, AROCLOR 1254, Method: PREINCUBATION) is “inactive; negative”; the mutagenic call (Test System: AMES SALMONELLA TYPHIMURIUM, Strain/Indicator: TA1537, Metabolic Activation: HAMSTER, LIVER, S-9, AROCLOR 1254, Method: PREINCUBATION) was “inactive; negative”; the mutagenic call (Test System: AMES SALMONELLA TYPHIMURIUM, Strain/Indicator: TA1537, Metabolic Activation: NONE, Method: PREINCUBATION) is “inactive; negative”; the mutagenic call (Test System: AMES SALMONELLA TYPHIMURIUM, Strain/Indicator: TA1537, Metabolic Activation: RAT, LIVER, S-9, AROCLOR 1254, Method: PREINCUBATION) is “inactive; negative”; the mutagenic call (Test System: AMES SALMONELLA TYPHIMURIUM, Strain/Indicator: UTH8413, Metabolic Activation: NONE, Method: STANDARD PLATE) is “inactive; negative”; the mutagenic call (Test System: AMES SALMONELLA TYPHIMURIUM, Strain/Indicator: UTH8413, Metabolic Activation: RAT, LIVER, S-9, AROCLOR, Method: STANDARD PLATE) was “inactive; negative”. The mutagenic call (Test System: AMES SALMONELLA TYPHIMURIUM, Strain/Indicator: UTH8414, Metabolic Activation: NONE, Method: STANDARD PLATE) was “inactive; negative” and the mutagenic call (Test System: AMES SALMONELLA TYPHIMURIUM, Strain/Indicator: UTH8414, Metabolic Activation: RAT, LIVER, S-9, AROCLOR, Method: STANDARD PLATE) was “inactive; negative”.

As to `Nc1ccc(-c2ccc(N)c(O)c2)cc1O`, the mutagenic call was “inactive; negative” under setting [1]; “inactive; negative” under setting [6]; “active; positive (weak)” under setting [3]; “active; positive (weak)” under setting [8]; “inactive; negative” under setting [9]; “inactive; negative” (Test System: AMES SALMONELLA TYPHIMURIUM, Strain/Indicator: TA1535, Metabolic Activation: RAT, LIVER, S-9, AROCLOR, Method: STANDARD PLATE). Further, the mutagenic call is “inactive; negative” under setting [10] and “inactive; negative” (Test System: AMES SALMONELLA TYPHIMURIUM, Strain/Indicator: TA1537, Metabolic Activation: RAT, LIVER, S-9, AROCLOR, Method: STANDARD PLATE).

As for `CCOC(=O)C(C)NC(=O)C=[N+]=[N-]` (stereo unspecified), the mutagenic call (Test System: UDS RODENT CELLS, Strain/Indicator: THY INCORP (NON-S-PHASE), Metabolic Activation: NONE, Method: AUTORADIOGRAPHY) was “active; positive”.

As for `Nc1ccc(Sc2ccc([N+](=O)[O-])cc2)cc1`, the mutagenic call was “active; positive” under setting [1] and “active; positive” under setting [2].

Regarding `Oc1c(Cl)cc(Cl)c(Cl)c1O`, the mutagenic call (Test System: CHINESE HAMSTER V-79, Strain/Indicator: V-79/6-THIOGUANINE, Metabolic Activation: NONE, Method: STANDARD PLATE) was “active; positive” and the mutagenic call (Test System: CHINESE HAMSTER V-79, Strain/Indicator: V-79/6-THIOGUANINE, Metabolic Activation: PRIMARY RAT HEPATOCYTES, Method: STANDARD PLATE) was “inactive; negative”.

Take `Clc1cccc(-c2nc3ccccc3o2)c1`: the mutagenic call under setting [1] was “inactive; negative”.

On to `CC(/C=C(/C#N)c1ccc(Cl)c(Cl)c1)C(c1ccccc1)C(C#N)c1ccc(Cl)c(Cl)c1` (stereo unspecified), for which the mutagenic call under setting [3] was “active; positive”.

Consider `[Cl][Ga]([Cl])[Cl]`, for which the mutagenic call runs as follows: under setting [5], “inactive; negative”; (Test System: AMES SALMONELLA TYPHIMURIUM, Strain/Indicator: TA98, Metabolic Activation: RAT, LIVER, S-9 (10%), Method: PREINCUBATION) “inactive; negative”; under setting [7], “inactive; negative”; (Test System: AMES SALMONELLA TYPHIMURIUM, Strain/Indicator: TA100, Metabolic Activation: RAT, LIVER, S-9 (10%), Method: PREINCUBATION) “inactive; negative”.

Take `O=S(=O)(Nc1cccc(Cl)c1)c1cccc2cccnc12`: the mutagenic call under setting [1] was “inactive; negative”; the mutagenic call under setting [2] is “inactive; negative”; the mutagenic call under setting [3] is “inactive; negative”; the mutagenic call under setting [4] is “inactive; negative”; the mutagenic call under setting [9] is “inactive; negative”; the mutagenic call (Test System: AMES SALMONELLA TYPHIMURIUM, Strain/Indicator: TA1535, Metabolic Activation: RAT, LIVER, S-9, AROCLOR 1254, Method: STANDARD PLATE) was “inactive; negative”. Besides, the mutagenic call reads like this: under setting [10], “inactive; negative”; (Test System: AMES SALMONELLA TYPHIMURIUM, Strain/Indicator: TA1537, Metabolic Activation: RAT, LIVER, S-9, AROCLOR 1254, Method: STANDARD PLATE) “inactive; negative”.

Regarding `CN(C)c1ccc(N=Nc2cccc(CCl)c2)cc1`, the mutagenic call was “active; positive” (Test System: AMES SALMONELLA TYPHIMURIUM, Strain/Indicator: TA98, Metabolic Activation: RAT, LIVER, S-9, POLYCHLORINATED BIPHENYLS, Method: PREINCUBATION) and “active; positive” (Test System: AMES SALMONELLA TYPHIMURIUM, Strain/Indicator: TA100, Metabolic Activation: RAT, LIVER, S-9, POLYCHLORINATED BIPHENYLS, Method: PREINCUBATION).

With `O=c1ccc2cc3c4c(c2o1)CCCN4CCC3`, the mutagenic call runs as follows: (Test System: AMES SALMONELLA TYPHIMURIUM, Strain/Indicator: TA1538, Metabolic Activation: NONE, Method: STANDARD PLATE) “inactive; negative”; (Test System: AMES SALMONELLA TYPHIMURIUM, Strain/Indicator: TA1538, Metabolic Activation: RAT, LIVER, S-9, AROCLOR 1254, Method: STANDARD PLATE) “active; positive”.
